Data: PubChem BioAssay AID602251 (NMMLSC, 2012)
pEC50: −log10 of the molar value. The source made the active and inactive calls.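 The calls were made as follows: active = fitted concentration giving half of the maximal binding block below 66 µM; inactive = the rest.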

Molecular target: anti-desmoglein 3 scFv antibody binding to human desmoglein 3 (DSG3)
Assay: blockers of pemphigus antibody–desmoglein 3 interaction – biochemical, DSG3-coupled beads, scFv-GFP, flow cytometry, Cherry Pick 1, dose response (AID 602251);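 as to binding response, lower = inhibition: 100% = DMSO vehicle binding and 0% = soluble DSG3 blocking control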
Conditions: for binding response, lower = inhibition: at 66.1 µM (top of the series)

| SMILES | binding response, lower = inhibition | pEC50 |
| --- | --- | --- |
| O=C(COc1cc2oc(=O)c3c(c2cc1Cl)CCC3)Nc1ccccn1 | inactive |  |
| CC(C)(C)NS(=O)(=O)c1ccc(NC(=O)c2cc(-c3ccccc3)nc3ccccc23)cc1 | inactive |  |
| COC(=O)c1cc(/C=C/c2ccccc2)on1 | inactive |  |
| COc1ccccc1C(=O)Nc1ccc(Oc2ncnc3sc(-c4ccccc4)cc23)cc1 | inactive |  |
| Cc1c(C(=O)Nc2ccc(OCc3ccccc3)cc2)cccc1[N+](=O)[O-] | inactive |  |
| O=C(Nc1nc2cc3c(cc2s1)OCCO3)c1ccc(N2C(=O)CCC2=O)cc1 | inactive |  |
| CCOc1ccc(N(CC(=O)NCCSCc2ccco2)S(=O)(=O)c2ccc(C)cc2)cc1 | inactive |  |
| COc1ccc(NC(=O)c2cc(-c3ccc(C)o3)nc3ccccc23)cc1OC | inactive |  |
| Nc1c(C(=O)c2ccccc2)oc2ccc([N+](=O)[O-])cc12 | inactive |  |
| CCC(C)n1cnc2c(c1=O)c1nc3ccccc3nc1n2-c1ccc2c(c1)OCCO2 (configuration not stated) | inactive |  |
| COc1ccc(NC(=O)CSc2nc3c([nH]c4ccccc43)c(=O)n2C)c(OC)c1 |  | 4.65 |
| CN1C(=O)/C(=C/c2cccn2-c2ccc3ccccc3c2)C(=O)NC1=S | inactive |  |
| COc1ccc(C(=O)Nc2ccc(Oc3ncnc4sc(-c5ccccc5)cc34)cc2)cc1OC | inactive |  |
| Clc1ccc2nc(CSc3nnc(-c4c[nH]c5ccccc45)o3)cn2c1 |  | 4.60 |
| Cc1sc(NC(=O)CSc2nnc3scc(-c4ccccc4)n23)c(C#N)c1C | inactive |  |
| Cc1ccc(NC(=O)CSc2ccc(C(N)=O)cc2[N+](=O)[O-])cc1C | inactive |  |
| Cc1cc(NC(=O)CSc2nnc(-c3c[nH]c4ccccc34)n2-c2ccc(F)cc2)no1 | inactive |  |
| Cc1cccc(NC(=O)Cn2nnc(C(=O)NCc3cccs3)c2N)c1C | inactive |  |
| O=C(Cc1ccccc1)Nc1ccc(NC(=O)c2cccs2)cc1Cl | inactive |  |
| Cc1cc(C)cc(N(CC(=O)NC2CCC(C)CC2)S(=O)(=O)c2c(C)noc2C)c1 (configuration not stated) | inactive |  |
| OCc1cn(-c2ccccc2)nc1-c1ccc(-c2nn(-c3ccccc3)cc2CO)cc1 | inactive |  |
| O=C(Nc1ccc2c(c1)OCO2)C1CCN(c2ccc(S(=O)(=O)N3CCOCC3)cc2)CC1 | inactive |  |
| Cc1ccc(-n2ncc3c(=O)[nH]c(SCC(=O)N4CCN(c5ccccc5)CC4)nc32)cc1 | inactive |  |

| SMILES | binding response, lower = inhibition | pEC50 |
| --- | --- | --- |
| O=C(O)CCC(=O)NCCC1=c2ccccc2=N/C1=C\c1c(O)n(Cc2ccc(F)cc2)c(=S)[nH]c1=O | inactive |  |
| COc1ccc(Cl)cc1NC(=O)CSc1nc(NS(=O)(=O)c2ccc(C)cc2)cc(=O)[nH]1 | inactive |  |
| CSc1nc(SCC(=O)O)c2sc3nc(-c4ccccc4)c4c(c3c2n1)CCC4 | inactive |  |
| CCOc1ccc(Nc2ncnc3c2cnn3-c2ccccc2)cc1 | inactive |  |
| O=C(NCc1ccccc1)c1ccc(C(=O)NCc2ccccc2)cc1 | inactive |  |
| Cc1ccsc1-c1nc(-c2ccccc2)c(-c2ccccc2)[nH]1 | inactive |  |
| COc1ccc(-n2c(SCC(=O)Nc3nccs3)nnc2-c2ccc(Cl)cc2)cc1 |  | 4.55 |
| Nc1ncnc2oc(-c3ccco3)c(-c3ccco3)c12 | inactive |  |
| C=CCSc1nc(N)c(C#N)c(-c2ccccc2)c1C#N | inactive |  |
| COc1cccc2c1NC(C(=O)O)C1CC=CC21 (configuration not stated) |  | 4.49 |
| Cc1cc(SCC(=O)Nc2ccc3[nH]c(=O)[nH]c3c2)nc2ccccc12 | inactive |  |
| O=[N+]([O-])c1ccc(N=NNc2ccc([N+](=O)[O-])cc2)cc1 |  | 4.23 |
| O=C(COC(=O)c1ccc(S(=O)(=O)N2CCc3ccccc3C2)cc1)NC1CCS(=O)(=O)C1 (configuration not stated) | inactive |  |
| O=C1c2ccccc2C(=O)N1Cc1nn2c(-c3ccc(Cl)cc3)nnc2s1 |  | 4.44 |
| COc1ccc(OC)c(NC(=O)c2nc(-c3ccccc3)oc2C)c1 | inactive |  |
| Cc1cc(=O)oc2c(C)c(OCC(=O)NCc3ccccn3)ccc12 | inactive |  |
| Cc1cc(NC(=O)c2cc(-c3ccccn3)nc3ccc(Br)cc23)no1 | inactive |  |
| O=C(COC(=O)Cc1ccc(-c2ccccc2)cc1)NCc1ccc(F)cc1 | inactive |  |
| O=C(CSc1ccc(Cl)cc1)Nc1cccc(-c2nc3ccccc3[nH]2)c1 |  | 4.23 |
| CN(C)Cc1cc(O)c(CN(C)C)cc1O | inactive |  |
| CC(=O)Nc1ccc(-c2cc(-c3ccccc3)nc(-c3ccccc3)n2)cc1 | inactive |  |
| O=C(Nc1ccc(-c2cn3c(n2)SCC3)cc1)c1ccc2c(c1)OCO2 | inactive |  |
| C=CCn1c(O)c(C2=c3ccccc3=NC2=O)s/c1=N/c1nccs1 |  | 4.40 |

| SMILES | binding response, lower = inhibition | pEC50 |
| --- | --- | --- |
| O=C(Nc1ccc(Nc2ccncc2)cc1)c1ccc(Nc2ccnc3ccc([N+](=O)[O-])cc23)cc1 | inactive |  |
| COc1ccccc1-n1cnc2c(c1=O)c1nc3ccccc3nc1n2-c1ccc(C)c(C)c1 | inactive |  |
| COC(=O)c1sc(NC(=O)c2cc(-c3ccccc3)nc3ccccc23)c(C#N)c1C | inactive |  |
| O=C(N/N=C1/C(=O)c2cccc3cccc1c23)c1ccc(Cl)cc1 | inactive |  |
| Cc1ccc(O)c(NC(=O)c2ccc3c(c2)C(=O)N(Cc2cccnc2)C3=O)c1 | inactive |  |
| O=C(NCCN1C(=O)S/C(=C\c2ccc(Cl)c(Cl)c2)C1=O)c1cnccn1 | inactive |  |
| CCCNC(=O)c1c(N)n(-c2ccc(S(N)(=O)=O)cc2)c2nc3ccccc3nc12 | inactive |  |
| O=C(NCCCN1CCOCC1)c1cc(-c2cccc(Br)c2)nc2ccccc12 | inactive |  |
| CCOc1ccc(-n2nc3ccc(NC(=O)c4ccc5c(c4)OCCO5)cc3n2)cc1 | inactive |  |
| CC(C)OC(=O)CSc1nc2c(cc1C#N)CCCCC2 | inactive |  |
| COc1ccc(NC(=O)c2ccc3c(c2)S(=O)(=O)c2ccccc2C3=O)cc1 | inactive |  |
| NC(=O)c1ccsc1NC(=O)COC(=O)c1cc(=O)[nH]c2ccccc12 |  | 4.52 |
| O=C(COC(=O)c1ccc(S(=O)(=O)N2CCCC2)cc1)NCc1ccc(Cl)cc1 | inactive |  |
| S=c1[nH]ncn1/N=C/c1ccccc1 | inactive |  |
| COc1cccc(C(C(=O)NC2CCCCC2)N(CCN2CCOCC2)C(=O)C2COc3ccccc3O2)c1 (configuration not stated) | inactive |  |
| CCN(CC)c1ccc(NC(=O)CCCCC(=O)Nc2ccc(N(CC)CC)cc2)cc1 |  | 4.57 |
| COc1cc(C(=O)Nc2cccc(-c3nc4cc(C)ccc4o3)c2C)cc(OC)c1OC |  | 4.61 |
| N#Cc1cn(-c2ccccc2)nc1-c1ccc2c(c1)OCCO2 | inactive |  |
| CCOc1ccc(NC(=O)c2ccc(NC(=O)CSc3nc4ccccc4c(=O)[nH]3)cc2)cc1 | inactive |  |
| Cc1ccc2nc(NC(=O)c3ccc4ncsc4c3)sc2c1 | inactive |  |
| C#CCn1c(=NC(=O)c2sc3ccccc3c2Cl)sc2cc(S(N)(=O)=O)ccc21 | inactive |  |
| CC(=O)c1c(C)n(-c2ccc(C)cc2)c2ccc(O)cc12 | inactive |  |
| COc1cc2sc3ccc(C#Cc4ccccn4)cc3c(=O)c2cc1OC | inactive |  |

| SMILES | binding response, lower = inhibition | pEC50 |
| --- | --- | --- |
| COc1ccc(C(=O)Nc2ccc(NC(=O)c3cnccn3)cn2)cc1 | inactive |  |
| O=C(NC1CCCCC1)C(c1ccc(O)cc1)N(CC1CCCO1)C(=O)C1COc2ccccc2O1 (configuration not stated) |  | 4.42 |
| CCC(=O)N1CCc2cc(S(=O)(=O)N(C)c3ccc(Br)cc3)ccc21 | inactive |  |
| COc1ccc(O)c(/C=N/n2c(-c3ccco3)csc2=Nc2cccnc2)c1 | inactive |  |
| N=c1oc2ccc3ccccc3c2cc1C(N)=S | inactive |  |
| COc1ccccc1NC(=O)c1cc(C(=O)Nc2ccccc2OC)cc([N+](=O)[O-])c1 |  | 4.60 |
| Cc1ccc2oc(-c3ccc(NC(=O)CC(C)C)cc3)nc2c1 | inactive |  |
| C=CCn1c(SCC(=O)N2CCN(c3ccccc3)CC2)nc2c([nH]c3ccccc32)c1=O |  | 4.29 |
| COc1cc(/C=C2/C(=N)N3OC(C)=CC3=NC2=O)ccc1OC(=O)c1ccco1 | inactive |  |
| Cc1ccc(NC(=O)c2sc(N)nc2-c2ccc([N+](=O)[O-])cc2)cc1C | inactive |  |
| COc1ccc(Cl)c(NC(=O)NCCN2CCN(c3ccccc3)CC2)c1 | inactive |  |
| CCOC(=O)Cn1c(=NC(=O)c2cccs2)sc2cc(C(=O)OC)ccc21 |  | 4.58 |
| COc1cc(C(C(=O)NC2CCCCC2)N(CCN2CCOCC2)C(=O)C2COc3ccccc3O2)cc(OC)c1OC (configuration not stated) | inactive |  |
| COc1ccccc1CNC(=O)COC(=O)c1ccc(S(=O)(=O)N2CCCC2)cc1 | inactive |  |
| CSCCC(NC(=O)C12CC3CC(CC(C3)C1)C2)C(=O)OCC(=O)c1ccc(C)cc1 (configuration not stated) | inactive |  |
| NS(=O)(=O)c1ccc(NC(=O)c2cc(-c3cccs3)nc3ccccc23)cc1 |  | 4.76 |
| C=CCSc1nc(N)c(C(=O)Nc2ccccc2)cc1C#N | inactive |  |
| COc1ccc(C2=C(Nc3ccc(F)cc3)c3ccccc3C2=O)cc1 | inactive |  |
| Nc1ccc2nc3c(=O)[nH]c(=S)[nH]c3nc2c1 |  | 4.41 |
| CS(=O)(=O)c1ccc2nc(NC(=O)Nc3ccccc3F)sc2c1 | inactive |  |
| CC(=O)Nc1cc(=O)c2cccnc2[nH]1 |  | 4.59 |
| COc1ccc(N=C2S/C(=C\c3ccc(OCC(=O)O)cc3)C(=O)N2CCc2c[nH]c3ccccc23)cc1 |  | 4.80 |
| CN1C(=CC=C2C=C(I)C(=O)C(I)=C2)C(C)(C)c2ccccc21 |  | 4.80 |
